These results are taken from article PMC8831520, “Small molecule SWELL1 complex induction improves glycemic control and nonalcoholic fatty liver disease in murine Type 2 diabetes” (Nature Communications, 2022).

Molecules are shown by their SMILES.

Broadly, the IC50 is the concentration needed to halve the response being measured.

The target in data set [1] is T1, R103E-SWELL1 expressing HEK-293 cells (R103E O/E) (Homo sapiens, UniProt Q8IWT6, R103E).
T1 construct: P2A:EGFP (C); host or cells: HEK-293, Lipofectamine 2000, co-transfected with CMV-Cre; EGFP+ cells recorded
T1 sequence (Q8IWT6 whole entry R103E): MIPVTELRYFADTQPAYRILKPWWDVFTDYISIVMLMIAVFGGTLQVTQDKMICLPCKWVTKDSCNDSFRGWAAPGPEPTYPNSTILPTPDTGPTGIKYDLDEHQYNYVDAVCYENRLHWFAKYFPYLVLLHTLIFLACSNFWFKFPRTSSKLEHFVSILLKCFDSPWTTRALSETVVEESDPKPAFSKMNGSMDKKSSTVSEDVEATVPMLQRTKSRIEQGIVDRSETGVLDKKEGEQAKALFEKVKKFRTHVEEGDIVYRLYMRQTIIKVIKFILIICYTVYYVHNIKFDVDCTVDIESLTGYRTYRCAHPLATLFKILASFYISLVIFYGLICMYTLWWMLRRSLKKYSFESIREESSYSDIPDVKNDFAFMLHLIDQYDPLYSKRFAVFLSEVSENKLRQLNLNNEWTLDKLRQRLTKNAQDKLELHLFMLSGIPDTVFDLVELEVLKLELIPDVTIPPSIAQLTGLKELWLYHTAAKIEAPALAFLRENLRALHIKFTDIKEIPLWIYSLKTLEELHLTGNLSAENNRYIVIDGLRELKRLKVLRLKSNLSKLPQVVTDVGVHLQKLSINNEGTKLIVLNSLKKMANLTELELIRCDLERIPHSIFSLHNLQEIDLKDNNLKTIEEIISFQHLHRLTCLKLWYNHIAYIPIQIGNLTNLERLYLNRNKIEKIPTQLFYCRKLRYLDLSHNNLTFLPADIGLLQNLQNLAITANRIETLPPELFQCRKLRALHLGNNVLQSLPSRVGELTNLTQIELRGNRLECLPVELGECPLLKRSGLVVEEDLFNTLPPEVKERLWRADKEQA
The experiment in a line: ICl,SWELL inhibition in SWELL1-R103E overexpressing cells, patch-clamp. Type of data set: cell-based. The text has this:
See also Fig. 6 for a schematic representation. […] For SWELL1-R103E overexpression experiments, HEK-293 cells were transfected with either control Cre plasmid (CMV-Cre, McDonnell Genome Institute in Washington University in St. Louis) or Cre plus R103E-GFP (CAG-LoxP-stop-LoxP-SWELL1-R103E/3XFlag:P2A:EGFP, Vector Biolabs) plasmid using Lipofectamine 2000 as per the manufacturer’s protocol. SWELL1-R103E expressing HEK-293 cells were identified by EGFP + fluorescence.

Data set [2] has as its system insulin-AKT2-AS160 signaling in 3T3-F442A cells. The experiment in a line: Insulin-stimulated AKT2-AS160 signaling western blot. Type of data set: cell-based, murine. The conditions noted are these: 96 h. The protocol:
Adipocytes were washed twice in ice-cold phosphate buffer saline and lysed in RIPA buffer (150 mM NaCl, 20 mM HEPES, 1% NP-40, 5 mM EDTA, pH 7.4) with proteinase/phosphatase inhibitors (Roche). The cell lysate was further sonicated in 10 s cycle intervals 2–3 times and centrifuged at 18,407×g for 30 min at 4 °C and repeated one more time to remove the excess fat. The supernatant was collected and further estimated for protein concentration using a DC protein assay kit (Bio-Rad). Fat and liver tissues were homogenized and suspended in RIPA buffer with inhibitors and further processed in a similar fashion as described above. HUVECs were also prepared in a similar fashion except the lysates were spun only once to remove the cells debris to obtain the clear supernatant. For islets, either human or mouse islets were washed twice with phosphate buffer saline (PBS) and lysed using RIPA buffer containing protease and phosphatase inhibitors. The lysate was further clarified by freezing in liquid nitrogen for about 10 s for three cycles. The supernatant was collected from the whole lysate centrifuged at 16,260×g for 20 min at 4 °C. […] For soleus muscle, the tissue was homogenized in a Bullet Blender homogenizer (Speed-9, Time-3 mins) in 8 volumes of ice-cold muscle homogenization buffer (50 mM Tris, 25 mM NaCl, 0.2% Nonidet P-40, 5 mM EGTA, 2.5 mM EDTA, 20 mM NaF, 20 mM Na4P2O7·10H2O, 2 mM Na3VO4, pH 7.4) supplemented with protease/phosphatase inhibitor (Roche). The homogenized lysate was centrifuged two times at 18,500×g for 20 min at 4 °C and supernatant was collected for protein estimation. Protein samples were further prepared by boiling in 2X or 4X Laemmli buffer. Approximately 10–60 µg of total protein was loaded in 4–15% gradient gel (Bio-Rad) for separation and protein transfer was carried out onto the PVDF membranes (Bio-Rad). […] The images were further analyzed for band intensities using ImageJ software. […]

Data set [3] has as its system T2, SWELL1 protein in adipose tissue.
T2 construct: from tissue; host or cells: eWAT of HFD-fed C57BL/6 mice; inguinal fat of KKA^y mice
The experiment in a line: SWELL1 protein in adipose tissue of treated T2D mice. Type of data set: in vivo, mouse. The protocol:
(§1) All compounds were dissolved in Kolliphor® EL (Sigma, #C5135).
(§2) Adipocytes were washed twice in ice-cold phosphate buffer saline and lysed in RIPA buffer (150 mM NaCl, 20 mM HEPES, 1% NP-40, 5 mM EDTA, pH 7.4) with proteinase/phosphatase inhibitors (Roche). The cell lysate was further sonicated in 10 s cycle intervals 2–3 times and centrifuged at 18,407×g for 30 min at 4 °C and repeated one more time to remove the excess fat. The supernatant was collected and further estimated for protein concentration using a DC protein assay kit (Bio-Rad). Fat and liver tissues were homogenized and suspended in RIPA buffer with inhibitors and further processed in a similar fashion as described above. HUVECs were also prepared in a similar fashion except the lysates were spun only once to remove the cells debris to obtain the clear supernatant. For islets, either human or mouse islets were washed twice with phosphate buffer saline (PBS) and lysed using RIPA buffer containing protease and phosphatase inhibitors. The lysate was further clarified by freezing in liquid nitrogen for about 10 s for three cycles. The supernatant was collected from the whole lysate centrifuged at 16,260×g for 20 min at 4 °C. […] The images were further analyzed for band intensities using ImageJ software. […]

Data set [4] can be described thus: Tolerability of chronic i.p. dosing. Type of data set: in vivo, mouse. The following applies: daily i.p. injections for up to 8 weeks. The protocol:
as §1

For another data set, the system named is T3, SWELL1 protein.
T3 construct: from tissue; host or cells: soleus muscle of HFD-T2D mice; liver of T2D KKA^y mice
The experiment in a line: SWELL1 protein in skeletal muscle and liver of treated T2D mice. Type of data set: in vivo, mouse. The protocol: as §2

The subject of the next data set is primary hepatocytes. The experiment in a line: Signaling in cultured primary hepatocytes. Type of data set: cell-based, mouse. The conditions noted are these: 10 µM, 24–48 h, SWELL1-dependent. On the procedure:
For primary hepatocytes isolation, the SWELL1^fl/fl (Wildtype, WT) and Albumin-Cre/SWELL1^fl/fl (Knockout, KO) mice were anesthetized using isoflurane. A 24 G i.v. catheter was inserted into the portal vein and a buffer containing HBSS (Ca^2+ and Mg^2+ free) + 0.5 mM EGTA was perfused through the liver at a rate of 4.5 mL/min. The portal vein was quickly cut after the perfusion began. The liver was perfused until it was free from blood and subsequently perfused with DMEM + 1x Pyruvate+ Type IV Collagenase (Sigma C5138) (1 mg/mL) for 4–5 min until the liver was soft. The liver was excised and put into 10 mL DMEM + collagenase solution. The tissue was broken down by agitation and passed through 25- and 10-mL pipette until the cells were free. The cells were suspended in 15 mL cold DMEM + 10% FBS + 1% P/S (penicillin and streptomycin). The cells were then passed through a 100 µm filter and spun at 50×g for 2 min. The supernatant was discarded and the cell pellet was washed with 25 mL of DMEM + 10% FBS + 1% P/S media three times. Cells were checked for viability by diluting 1:2 with Trypan blue and batches with >80% viability were used. The hepatocytes were then plated on Type I Collagen (75 µg/mL) coated dish with a density of 500,000 cells per well (6-well) in DMEM + 10% FBS + 1% P/S media.

Details of data set [5]: method as in Zhang et al., Experimental Neurology, 2008. The following applies: ref Zhang et al., Experimental Neurology, 2008; cited from earlier work.

As to `CCCCC1(C2CCCC2)Cc2cc(OCCCC(=O)O)c(Cl)c(Cl)c2C1=O` (centres unmarked) [SN-401, 4-((2-butyl-6,7-dichloro-2-cyclopentyl-1-oxo-2,3-dihydro-1H-inden-5-yl)oxy)butanoic acid], half-maximal inhibition in data set [1] (IC50) required 6 µM. The “insulin-stimulated levels of pAS160” value in data set [2] (500 nM, WT adipocytes) is recorded as “enhanced”. The “insulin-stimulated levels of pAKT2” value in data set [2] (10 µM preadipocytes, 500 nM adipocytes) is “enhanced”. Further, the “effects on insulin-AKT2-AS160 signaling in SWELL1 KO adipocytes” value in data set [2] (SWELL1 KO 3T3-F442A adipocytes, 500 nM) is listed as “absent”. Further, the “SWELL1 expression in adipose tissue” value in data set [3] (HFD-fed T2D mice, 5 mg/kg i.p.) is reported as “twofold”; in data set [3] (KKAy T2D mice, 5 mg/kg i.p. × 5 days), “threefold”. Moreover, the tolerability entry in data set [4] is “no overt signs of toxicity”. Further, the “SWELL1 induction in skeletal muscle” value in the data set with SWELL1 protein (HFD-T2D mice (18 weeks HFD), 5 mg/kg i.p. 4 days) was “trend toward SN-401 mediated SWELL1 induction”. Also, the “hepatic SWELL1 protein” value in the data set on SWELL1 protein (T2D KKAy mice, 5 mg/kg i.p. 5 days) is on record as “does not induce”. Moreover, the “pAS160 in primary hepatocytes” value with primary hepatocytes was “robustly induces”. For the same compound, in data set [5], the “blood brain barrier passage” value is “does not cross the blood brain barrier”.
